Laboratory results: patent publication US12297244B2, “Systems and methods for inhibiting γ-secretase production of amyloid-β peptides” (Rensselaer Polytechnic Institute, priority 2020, dated 2025)
Where two headings read alike, the source gives them in different places.

Key:
[1] = biological target: T1, γ-secretase in the HeLa membrane (Homo sapiens, UniProt P05067); experiment: AlphaLISA γ-secretase assay with biotinylated Sb4 (APP sequence) substrate; format: biochemical; parameters: fused on or other part: Biotin label on Sb4; conditions: from lower IC50 for Aβ42 than Aβ40
T1 sequence (P05067 whole entry, the tested form may be a part): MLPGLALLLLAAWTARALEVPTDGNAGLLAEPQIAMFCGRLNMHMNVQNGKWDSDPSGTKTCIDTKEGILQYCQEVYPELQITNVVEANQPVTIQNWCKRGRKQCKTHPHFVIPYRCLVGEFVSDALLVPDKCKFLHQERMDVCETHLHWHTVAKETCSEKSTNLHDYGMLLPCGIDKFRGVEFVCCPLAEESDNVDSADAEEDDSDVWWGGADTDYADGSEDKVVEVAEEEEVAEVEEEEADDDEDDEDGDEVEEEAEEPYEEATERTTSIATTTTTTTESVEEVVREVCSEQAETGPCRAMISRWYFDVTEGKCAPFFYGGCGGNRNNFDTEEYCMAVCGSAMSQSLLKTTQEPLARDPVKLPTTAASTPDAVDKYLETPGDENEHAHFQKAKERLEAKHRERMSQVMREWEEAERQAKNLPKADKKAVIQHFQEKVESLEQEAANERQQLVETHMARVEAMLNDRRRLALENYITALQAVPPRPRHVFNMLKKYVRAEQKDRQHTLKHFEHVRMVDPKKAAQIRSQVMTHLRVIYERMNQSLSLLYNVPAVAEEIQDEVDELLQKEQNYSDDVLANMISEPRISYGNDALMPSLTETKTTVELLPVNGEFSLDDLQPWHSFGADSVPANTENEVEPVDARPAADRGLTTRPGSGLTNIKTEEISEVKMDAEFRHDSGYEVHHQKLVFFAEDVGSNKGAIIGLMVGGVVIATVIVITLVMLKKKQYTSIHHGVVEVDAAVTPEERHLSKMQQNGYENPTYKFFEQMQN
Source text: (§1) Referring now to FIG. 1, and without wishing to be bound by theory, γ-secretase cleaves within the transmembrane domain of the amyloid precursor protein (APPTM) to release Aβ, which aggregates to form neurotoxic oligomers and fibrils. […] Formula III decreased the production of Aβ40 and Aβ42 by γ-secretase in a dose dependent manner (FIG. 2).

[2] = biological target: T1, γ-secretase in the HeLa membrane; experiment: as above; format: biochemical; parameters: other: γ-secretase in HeLa membrane, Sb4 substrate; fused on or other part: Biotin label on Sb4; conditions: γ-secretase in HeLa membrane, Sb4 substrate
Source text: as §1

IC50 ([2]; read-out: IC50 for the inhibition of Aβ40 production): 3900 nM
IC50 ([2]; read-out: IC50 for the inhibition of Aβ42 production): 1900 nM
Compound: O=C(C=COc1ccc2ccccc2c1)c1ccc(F)cc1 [Formula III]
selectivity in inhibiting Aβ42 production over Aβ40 [1]: selectivity in inhibiting Aβ42 production over Aβ40
